Laboratory results reported in patent US5075499A, “Calcium supplementation by dicalcium citrate-lactate” (Board of Regents, The University of Texas System, priority 1988, dated 1991).

Key:
[1] = osteoporosis prone postmenopausal women; cited from earlier work
[2] = Bulk density of the dried granular composition; assay type: physicochemical
Procedure: 38.4 grams of citric acid powder and 40 grams of calcium carbonate were thoroughly mixed in a large beaker. 36 grams of lactic acid, 50 weight percent solution, was slowly added with rapid stirring. 40 grams of water was then introduced slowly in small portions, each portion was added after the CO2 evolution slowed or ceased. After drying, the material was sized and found to have a bulk density greater than 1.1 g/cc. Bulk density was determined by an Archimedean method. This dense granular dicalcium citrate-lactate was subjected to compression tableting to form tablets containing 10 meq (200 milligrams) of calcium, and 7.5 meq (472 milligrams) of citrate, with a size of 0.29 (7.47 millimeters) inch by 0.74 (1.9 centimeters) inch.
The dicalcium citrate-lactate tablets of the present invention were also produced on a large scale. 38.4 kilograms of citric acid powder and calcium carbonate were placed in a Colton 7 cubic ft. ribbon mixer and blended for 2 minutes. Thirty six kilograms of the lactic acid, 50 weight percent solution, were added in approximately three equal portions, 3 minutes apart with continuous mixing. Water (40 kilograms) was added in approximately four equal portions 2-3 minutes apart with continuous mixing. Mixing continued for 10 minutes. The resultant granular and lumpy material was passed through a Fitzmill, knives forward, with no screen, trayed and dried at 212° F.-221° F. (100° C.-105° C.) for three hours. The dried product was sized and its bulk density was determined to be greater than 1.1 g/cc. The sizing was done using a Fitzmill Model No. 6 with a 31262AA screen.
The procedure previously described in Example 2 was followed with the exception of calcium carbonate being replaced by calcium oxide. Dicalcium citrate-lactate having a bulk density of greater than 0.7 g/cc was produced.
The procedure previously described in Example 2 was followed with the exception of calcium carbonate being replaced by calcium hydroxide. Calcium citrate lactate having a bulk density of greater than 0.8 g/cc was produced.

[3] = cited from earlier work; for effectiveness in raising urinary citrate compared with tricalcium dicitrate: vs tricalcium dicitrate
[4] = cited from earlier work
[5] = Calcium absorption from oral tablets (increment in urinary calcium during the second two hours, Example 5); details: 400 mg elemental calcium, ten normal volunteers, SD
Procedure: Calcium absorption was measured from the increment in urinary calcium during the second two hours following the administration of the oral calcium tablets.
The calcium absorption was measured from the increment in urinary calcium during the second two hours following oral calcium load, expressed as mg calcium/dl glomerular filtrate (GF).

[6] = cited from earlier work; remark: listed apart in the source

In the case of `O=C(O)O` [calcium carbonate], the “prevention of further bone losses” value [1] is given as “to a lesser extent”.

With `CC(O)C(=O)[O-].O=C([O-])CC(O)(CC(=O)[O-])C(=O)[O-].[Ca+2].[Ca+2]` [dicalcium citrate-lactate] the bulk density ([2]; from calcium carbonate, large batch (Example 2)) was “greater than 1.1 g/cc”, the bulk density ([2]; from calcium carbonate, small batch (Example 1), Archimedean method) was “greater than 1.1 g/cc” and the bulk density ([2]; from calcium hydroxide, large batch (Example 4)) was “greater than 0.8 g/cc”. For the same compound, the bulk density ([2]; from calcium oxide, large batch (Example 3)) was “greater than 0.7 g/cc”.

In the case of `CC(O)C(=O)O` (stereo not drawn) [calcium lactate], the “effectiveness in raising urinary citrate compared with tricalcium dicitrate” value [3] is listed as “not as effective as tricalcium dicitrate”.

In the case of `O=C(O)CC(O)(CC(=O)O)C(=O)O` [tricalcium dicitrate], the “precipitation out of simulated duodenal juice” value [4] is given as “did not precipitate out of simulated duodenal juice”, the “urinary citrate” value ([3]; Harvey, Zobitz and Pak 1985) is given as “increased urinary citrate” and the “calcium absorption (increment in urinary calcium)” value [5] is given as 0.044±0.051 mg/dl GF.

For estrogen, the “prevention of further bone losses” value [1] is given as “further bone losses in osteoporosis prone postmenopausal women may be prevented”.

For `O=C(O)[C@H](O)[C@@H](O)[C@H](O)[C@H](O)CO` [calcium gluconate], the “effectiveness in raising urinary citrate compared with tricalcium dicitrate” value [3] is given as “not as effective as tricalcium dicitrate” and the “aqueous solubility” value [6] is given as “high aqueous solubility”.
